Converted amounts (≈) assume the structure as drawn. Read-outs that look alike come from different tables or passages of the source. Non-standard residues stand in square brackets, D forms with d. Residues, ends and D or L forms follow the SMILES beside them. *: point of attachment. Guan = N-terminal guanidation, N=C(N)*; Hyp = O=C(O)[C@@H]1C[C@@H](O)CN1; dOrn = NCCC[C@@H](N)C(=O)O; code O = not defined here; Orn = NCCC[C@H](N)C(=O)O; For = O=C*
Legend:
[1] = system: E. coli BL21 A1; type: cell-based, Escherichia coli
Description: (§1) The minimum inhibitory concentrations (MIC) of the antimicrobial peptides and peptide derivatives were determined in microdilution assays. These used a continuous peptide dilution in sterile flat-bottomed 96-well microtiter plates (polystyrene, Greiner Bio-One GmbH, Frickenhausen, Germany) and a total volume of 100 μL per well. The aqueous peptide or peptidomimetic solutions were diluted with 1% TSB water, to obtain a final concentration of 256 μg/mL. 50 μL of the peptide or peptidomimetic solution was pipetted into the first well of each series and stirred. From this solution, 50 μL was transferred to the second well, stirred and again 50 μL was transferred to the next well, and so on. A double dilution series is obtained, beginning at 256 μg/mL in the first well to 125 ng/mL in the twelfth well. The bacteria, e.g. E. coli BL21 A1, were cultured overnight at 37° C. in nutrient broth (NB, Carl Roth GmbH+Co. KG, Karlsruhe, Germany). 50 μL of a 5×10^6 bacteria/mL suspension in 1% TSB was added to each well of the microtiter plate and thus a final concentration of the peptides or peptidomimetics from 128 μg/mL (well 1) to 62.5 ng/mL (well 12) was established in each series. The plates were incubated at 37° C. for 20 h and then the absorption was measured at 595 nm with a TECAN microtiter plate spectrophotometer (Tecan Trading AG, Mannedorf, Switzerland). The MIC values of all peptides and peptidomimetics were determined in triplicate. Sterile water was used as negative control. The MIC value represents the lowest peptide concentration at which no bacterial growth is observed after an incubation time of 20 h at 37° C.
(§2) The MIC values of the peptides and peptide derivatives against Escherichia coli BL21 A1 and Micrococcus luteus ATCC 10240 are given in Table 7.

[2] = system: M. luteus 10240; test: Growth inhibition assay (microdilution MIC); type: cell-based, Micrococcus luteus
Description: as §1, §2

Row | MIC E. coli BL21 A1 ([1]; BL21, 20 h) | MIC M. luteus 10240 ([2]; 10240, 20 h) | Compound | other results
1 | 4 µg/mL (≈ 1.72 µM) | – | CC[C@H](C)[C@H](NC(=O)[C@H](CCCN)NC(=O)[C@H](CCCNC(=N)N)NC(=O)[C@@H]1CCCN1C(=O)[C@@H]1CCCN1C(=O)[C@H](CCCNC(=N)N)NC(=O)[C@@H]1CCCN1C(=O)[C@H](CCCNC(=N)N)NC(=O)[C@@H]1CCCN1C(=O)[C@H](CC(C)C)NC(=O)[C@H](Cc1ccc(O)cc1)NC(=O)[C@@H]1CCCN1C(=O)[C@@H]1CCCN1C(=O)[C@H](CCCCN)NC(=O)[C@H](CC(=O)O)NC(=O)[C@@H](N)C(C)C)C(=O)N[C@@H](Cc1ccc(O)cc1)C(=O)N[C@@H](CCC(N)=O)C(=O)N[C@@H](CCCN)C(N)=O [SEQ ID NO. 74, VDKPPYLPRPRPPROIYQO-NH2] (H-VDKPPYLPRPRPPR[Orn]IYQ[Orn]-NH2) | –
2 | 128 µg/mL (≈ 52.9 µM) | 32 µg/mL (≈ 13.2 µM) | CC[C@H](C)[C@H](NC(=O)[C@H](CCCNC(=N)N)NC(=O)[C@H](CCCNC(=N)N)NC(=O)[C@@H]1CCCN1C(=O)[C@@H]1CCCN1C(=O)[C@H](CCCNC(=N)N)NC(=O)[C@@H]1CCCN1C(=O)[C@H](CCCNC(=N)N)NC(=O)[C@@H]1CCCN1C(=O)[C@H](CC(C)C)NC(=O)[C@H](Cc1ccc(O)cc1)NC(=O)[C@@H]1CCCN1C(=O)[C@@H]1CCCN1C(=O)[C@H](CCCCN)NC(=O)[C@H](CC(=O)O)NC(=O)[C@@H](NC=O)C(C)C)C(=O)N[C@@H](Cc1ccc(O)cc1)C(=O)N[C@@H](CC(N)=O)C(=O)N[C@@H](CCCNC(=N)N)C(=O)O [SEQ ID NO. 81] (For-VDKPPYLPRPRPPRRIYNR-OH) | –
3 | – | 64 µg/mL (≈ 26.8 µM) | CC[C@@H](C)[C@@H](NC(=O)[C@@H](CCCNC(=N)N)NC(=O)[C@@H](CCCNC(=N)N)NC(=O)[C@H]1CCCN1C(=O)[C@H]1CCCN1C(=O)[C@@H](CCCNC(=N)N)NC(=O)[C@H]1CCCN1C(=O)[C@@H](CCCNC(=N)N)NC(=O)[C@H]1CCCN1C(=O)[C@@H](CC(C)C)NC(=O)[C@@H](Cc1ccc(O)cc1)NC(=O)[C@H]1CCCN1C(=O)[C@H]1CCCN1C(=O)[C@@H](CCCCN)NC(=O)[C@@H](CC(=O)O)NC(=O)[C@H](N)C(C)C)C(=O)N[C@H](Cc1ccc(O)cc1)C(=O)N[C@H](CC(N)=O)C(=O)N[C@H](CCCNC(=N)N)C(N)=O [SEQ ID NO. 115, vdkppylprprpprriynr-NH2] (H-[dV][dD][dK][dP][dP][dY][dL][dP][dR][dP][dR][dP][dP][dR][dR][dI][dY][dN][dR]-NH2) | –
4 | 64 to 256 µg/mL | – | CC[C@@H](C)[C@@H](NC(=O)[C@@H](Cc1ccc(O)cc1)NC(=O)[C@@H](CC(N)=O)NC(=O)[C@H](N)CCCN)C(=O)N[C@H](CCCN)C(=O)N[C@H](CCCNC(=N)N)C(=O)N1CCC[C@@H]1C(=O)N1CCC[C@@H]1C(=O)N[C@H](CCCNC(=N)N)C(=O)N1CCC[C@@H]1C(=O)N[C@H](CCCNC(=N)N)C(=O)N1CCC[C@@H]1C(=O)N[C@H](CC(C)C)C(=O)N[C@H](Cc1ccc(O)cc1)C(=O)N1CCC[C@@H]1C(=O)N1CCC[C@@H]1C(=O)N[C@H](CCCCN)C(=O)N[C@H](CC(=O)O)C(=O)N[C@@H](C(N)=O)C(C)C [SEQ ID NO. 118, onyiorpprprplyppkdv-NH2] (H-[dOrn][dN][dY][dI][dOrn][dR][dP][dP][dR][dP][dR][dP][dL][dY][dP][dP][dK][dD][dV]-NH2) | –
5 | 128 µg/mL (≈ 54.5 µM) | 32 µg/mL (≈ 13.6 µM) | CC[C@H](C)[C@H](NC(=O)[C@H](CCCNC(=N)N)NC(=O)[C@H](CCCNC(=N)N)NC(=O)[C@@H]1CCCN1C(=O)[C@@H]1CCCN1C(=O)[C@@H]1C[C@@H](O)CN1C(=O)[C@@H]1CCCN1C(=O)[C@H](CCCNC(=N)N)NC(=O)[C@@H]1CCCN1C(=O)[C@H](CC(C)C)NC(=O)[C@H](Cc1ccc(O)cc1)NC(=O)[C@@H]1CCCN1C(=O)[C@@H]1CCCN1C(=O)[C@H](CCCCN)NC(=O)[C@H](CC(=O)O)NC(=O)[C@@H](N)C(C)C)C(=O)N[C@@H](Cc1ccc(O)cc1)C(=O)N[C@@H](CC(N)=O)C(=O)N[C@@H](CCCNC(=N)N)C(=O)O [compound 3] (H-VDKPPYLPRP[Hyp]PPRRIYNR-OH) | –
6 | – | 8 µg/mL (≈ 3.45 µM) | CC[C@H](C)[C@H](NC(=O)[C@H](CCCN)NC(=O)[C@H](CCCNC(=N)N)NC(=O)[C@@H]1CCCN1C(=O)[C@@H]1CCCN1C(=O)[C@H](CCCNC(=N)N)NC(=O)[C@@H]1CCCN1C(=O)[C@H](CCCNC(=N)N)NC(=O)[C@@H]1CCCN1C(=O)[C@H](CC(C)C)NC(=O)[C@H](Cc1ccc(O)cc1)NC(=O)[C@@H]1CCCN1C(=O)[C@@H]1CCCN1C(=O)[C@H](CCCCN)NC(=O)[C@H](CC(=O)O)NC(=O)[C@@H](N)C(C)C)C(=O)N[C@@H](Cc1ccc(O)cc1)C(=O)N[C@@H](CCC(N)=O)C(=O)N[C@@H](CCCN)C(N)=O [compound 74] (H-VDKPPYLPRPRPPR[Orn]IYQ[Orn]-NH2) | –
7 | 16 µg/mL | – | H-VDKPPYLPRPRPPRRIYNH-NH2 [SEQ ID NO. 53] | times lower activity / higher MIC value than oncocin against E. coli [1]: 4 times

The remaining lines, values behind:

Row | Compound | MIC E. coli BL21 A1 ([1]; BL21, 20 h) | MIC M. luteus 10240 ([2]; 10240, 20 h) | other results
8 | 84 (Guan-VDKPPYLPRPRPPRRIYNR-NH2) [compound 84] | – | – | MIC E. coli BL21 A1 ([1]; 1% TSB, 20 h at 37° C.): 32 µg/mL
9 | 85 (Guan-VDKPPYLPRPRPPR[code O]IYN[code O]-NH2; reading uncertain; also: printed as Guan-VDKPPYLPRPRPPROIYNO-NH2) [compound 85] | – | – | MIC E. coli BL21 A1 ([1]; 1% TSB, 20 h at 37° C.): 64 µg/mL
10 | 95 ({RQIKIWFQNRRMKWKKC-Ac}-GNNRPVYIPQPRPPHPRL-OH; not fully specified (bridges); printed as RQIKIWFQNRRMKWKKC-(CH2CO-GNNRPVYIPQPRPPHPRL-OH)-; also: N-terminal CH2CO attached to Cys side chain of RQIKIWFQNRRMKWKKC-OH) [compound 95] | – | – | MIC E. coli BL21 A1 ([1]; 1% TSB, 20 h at 37° C.): 8 µg/mL; MIC M. luteus 10240 ([2]; 1% TSB, 20 h at 37° C.): 8 µg/mL
11 | CC[C@@H](C)[C@@H](NC(=O)[C@@H](CCCN)NC(=O)[C@@H](CCCNC(=N)N)NC(=O)[C@H]1CCCN1C(=O)[C@H]1CCCN1C(=O)[C@@H](CCCNC(=N)N)NC(=O)[C@H]1CCCN1C(=O)[C@@H](CCCNC(=N)N)NC(=O)[C@H]1CCCN1C(=O)[C@@H](CC(C)C)NC(=O)[C@@H](Cc1ccc(O)cc1)NC(=O)[C@H]1CCCN1C(=O)[C@H]1CCCN1C(=O)[C@@H](CCCCN)NC(=O)[C@@H](CC(=O)O)NC(=O)[C@H](N)C(C)C)C(=O)N[C@H](Cc1ccc(O)cc1)C(=O)N[C@H](CC(N)=O)C(=O)N[C@H](CCCN)C(N)=O [SEQ ID NO. 116, vdkppylprprpproiyno-NH2] (H-[dV][dD][dK][dP][dP][dY][dL][dP][dR][dP][dR][dP][dP][dR][dOrn][dI][dY][dN][dOrn]-NH2) | – | 128 µg/mL (≈ 55.5 µM) | –
12 | CC[C@@H](C)[C@@H](NC(=O)[C@@H](Cc1ccc(O)cc1)NC(=O)[C@@H](CC(N)=O)NC(=O)[C@H](N)CCCNC(=N)N)C(=O)N[C@H](CCCNC(=N)N)C(=O)N[C@H](CCCNC(=N)N)C(=O)N1CCC[C@@H]1C(=O)N1CCC[C@@H]1C(=O)N[C@H](CCCNC(=N)N)C(=O)N1CCC[C@@H]1C(=O)N[C@H](CCCNC(=N)N)C(=O)N1CCC[C@@H]1C(=O)N[C@H](CC(C)C)C(=O)N[C@H](Cc1ccc(O)cc1)C(=O)N1CCC[C@@H]1C(=O)N1CCC[C@@H]1C(=O)N[C@H](CCCCN)C(=O)N[C@H](CC(=O)O)C(=O)N[C@@H](C(N)=O)C(C)C [SEQ ID NO. 117, rnyirrpprprplyppkdv-NH2] (H-[dR][dN][dY][dI][dR][dR][dP][dP][dR][dP][dR][dP][dL][dY][dP][dP][dK][dD][dV]-NH2) | 64 to 256 µg/mL | – | –
13 | CC[C@H](C)[C@H](NC(=O)[C@H](CCCNC(=N)N)NC(=O)[C@H](CCCNC(=N)N)NC(=O)[C@@H]1CCCN1C(=O)[C@@H]1CCCN1C(=O)[C@H](CCCNC(=N)N)NC(=O)[C@@H]1CCCN1C(=O)[C@H](CCCNC(=N)N)NC(=O)[C@@H]1CCCN1C(=O)[C@H](CC(C)C)NC(=O)[C@H](Cc1ccc(O)cc1)NC(=O)[C@@H]1CCCN1C(=O)[C@@H]1CCCN1C(=O)[C@H](CCCCN)NC(=O)[C@H](CC(=O)O)NC(=O)[C@@H](N)C(C)C)C(=O)N[C@@H](Cc1ccc(O)cc1)C(=O)N[C@@H](CC(N)=O)C(=O)N[C@@H](CCCN)C(=O)N[C@@H](CC(N)=O)C(N)=O [compound 26] (H-VDKPPYLPRPRPPRRIYN[Orn]N-NH2) | 8 µg/mL (≈ 3.25 µM) | 8 µg/mL (≈ 3.25 µM) | –
14 | CC[C@H](C)[C@H](NC(=O)[C@@H](CCCNC(=N)N)NC(=O)[C@H](CCCNC(=N)N)NC(=O)[C@@H]1CCCN1C(=O)[C@@H]1CCCN1C(=O)[C@H](CCCNC(=N)N)NC(=O)[C@@H]1CCCN1C(=O)[C@H](CCCNC(=N)N)NC(=O)[C@@H]1CCCN1C(=O)[C@H](CC(C)C)NC(=O)[C@H](Cc1ccc(O)cc1)NC(=O)[C@@H]1CCCN1C(=O)[C@@H]1CCCN1C(=O)[C@H](CCCCN)NC(=O)[C@H](CC(=O)O)NC(=O)[C@@H](N)C(C)C)C(=O)N[C@@H](Cc1ccc(O)cc1)C(=O)N[C@@H](CC(N)=O)C(=O)N[C@H](CCCNC(=N)N)C(N)=O [compound 112] (H-VDKPPYLPRPRPPR[dR]IYN[dR]-NH2) | 4 µg/mL (≈ 1.67 µM) | – | –
15 | H-GNNRPVYIPQPRPPHPRL-OH [SEQ ID NO. 87, reference compound] | – | – | MIC M. luteus 10240 ([2]; 1% TSB, 20 h at 37° C.): 64 µg/mL
16 | H-VDKPPYLPRPPPPRRIYN-NH2 [compound 1] | 128 µg/mL | – | –
17 | H-VDKPPYLPRPRPPRRIYN-OH [compound 28] | – | 128 µg/mL | –
18 | H-VDKPPYLPRPRPPRRIYNH-NH2 [compound 53] | – | 16 µg/mL | –
